Measurements reported in publication PMC3544137, “Isolation identification and biochemical characterization of a novel halo-tolerant lipase from the metagenome of the marine sponge Haliclona simulans” (Microbial Cell Factories, 2012).

Molecular target: T1, Lpc53E1 (uncultured bacterium, UniProt I4AY78)
T1 construct: primer-encoded N-terminus MKSRLNDI
Experiment: p-nitrophenol release at […] nm, Lineweaver-Burk
Assay type: biochemical
Details: pH 7, 40 °C; unit printed as mM^-1 (presumably mM); unit of the source corrected

T1 sequence (I4AY78 1-387 limits assumed): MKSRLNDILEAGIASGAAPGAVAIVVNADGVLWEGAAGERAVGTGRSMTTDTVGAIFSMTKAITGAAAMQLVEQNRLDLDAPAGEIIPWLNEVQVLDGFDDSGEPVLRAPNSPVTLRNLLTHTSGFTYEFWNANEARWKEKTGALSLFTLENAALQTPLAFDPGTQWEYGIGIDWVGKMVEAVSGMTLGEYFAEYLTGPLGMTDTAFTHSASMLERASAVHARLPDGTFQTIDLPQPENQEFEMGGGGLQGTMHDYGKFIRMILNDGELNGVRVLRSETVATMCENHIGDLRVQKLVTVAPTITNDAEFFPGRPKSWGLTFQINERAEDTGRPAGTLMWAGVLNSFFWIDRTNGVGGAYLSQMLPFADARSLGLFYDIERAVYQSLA

KM: 1.09 mM
Compound: CCCCCCCCCCCCCCCC(=O)Oc1ccc([N+](=O)[O-])cc1 [pNPP, p-nitrophenyl palmitate]
